# Laboratory results from US20180028681A1, “COMBINATION THERAPY USING A CD19-ADC AND VINCRISTINE” (SEATTLE GENETICS, INC., priority 2015, published 2018).
# B1: SGN-CD19A: CD19-directed antibody-drug conjugate: humanized antibody hBU12, maleimidocaproyl linker, monomethyl auristatin F (MMAF); average four drugs per antibody (conjugate)
# VL: EIVLTQSPATLSLSPGERATLSCSASSSVSYMHWYQQKPGQAPRLLIYDTSKLASGIPARFSGSGSGTDFTLTISSLEPEDVAVYYCFQGSVYPFTFGQGTKLEIKR
# VH: QVQLQESGPGLVKPSQTLSLTCTVSGGSISTSGMGVGWIRQHPGKGLEWIGHIWWDDDKRYNPALKSRVTISVDTSKNQFSLKLSSVTAADTAVYYCARMELWSYYFDYWGQGTLVTVSS
# Legend:
# Type in all cases: in vivo, mouse
# NALM-6 = details: C.B-17 SCID mice; treatment 7 days post implant; SGN-CD19A single dose 1.0 mg/kg; cyclophosphamide 30, vincristine 0.375, doxorubicin 2.475 mg/kg single iv; dexamethasone 15 mg/kg ip daily x5; survivors sacrificed at 133 days
# Description: (§1) Establishment of cell line xenografts: NALM-6 (DSMZ, Braunschweig, Germany) and RS4; 11 (ATCC, Manassas, Va.) cell lines were cultured in RPMI 1640 media, supplemented with Heat Inactivated Fetal Bovine serum (10%) and Penicillin/Streptomycin(1%) (Gibco, Grand Island, N.Y.). Cells were maintained in a humidified atmosphere at 37° C. and 5% CO2. For NALM-6 cell implantation, 1.0×10^5 cells in 200 ul PBS were injected into the tail vein of female C.B-17 SCID (Harlan Laboratories, Livermore, Calif.) mice. Mice were randomly assigned to treatment groups and treatment was given seven days post cell implant. For RS4; 11 cell implantation, 1.8×10^6 cells in 200 ul PBS were implanted into the tail vein of female C.B-17 SCID mice. Mice were randomly assigned to treatment groups. Treatment was given one day post cell implant. Treatment in the NALM-6 consisted of a single dose of SGN-CD19A at 1.0 mg/kg; in RS4; 11, SGN-CD19A was given once every four days for four doses at 0.3 mg/kg. Cyclophosphamide, 30 mg/kg (Baxter, Deefield, Ill.), Vincristine, 0.375 mg/kg (Hospira, Lake Forest, Ill.), and Doxorubicin, 2.475 mg/kg (Pfizer, NY, NY) were combined and administered as a single dose via intravenous injection into the lateral tail vein. Dexamethasone, 15 mg/kg (APP Pharmaceuticals, Schaumberg, Ill.), was given daily for five days via intraperitoneal injection. For each xenograft model, mice were monitored daily and body weights were collected at least once per week. Mice were removed from experiment at the onset of clinical disease signs (hind limb weakness, piloerection, hunched posture) or weight loss in excess of 20% of initial body weight.
# (§2) Cell line-derived xenografts were used to investigate the median survival time for the combination of SGN-CD19A and CVAD, as well as SGN-CD19A and each of the components of CVAD. Either NALM-6 or Rs4; 11 cells were implanted into CB-17 SCID mice. Ten mice were assigned to each treatment group. […] SGN-CD19A and CVAD were administered at sub-optimal doses. Results are shown in FIGS. 4A and 4B and Tables 1 and 2. […] For the Rs4; 11 experiment, the experiment was terminated on day 154.
# RS4; 11 = details: C.B-17 SCID mice; treatment 1 day post implant; SGN-CD19A 0.3 mg/kg every four days x4; cyclophosphamide 30, vincristine 0.375, doxorubicin 2.475 mg/kg single iv; dexamethasone 15 mg/kg ip daily x5; terminated day 154
# Description: as §1, §2
# [1] = tested on: ALL patient donor 90811 xenograft; assay: Disease burden (blast cells) in bone marrow, patient-derived ALL xenograft donor 90811; details: for Disease Burden in Bone Marrow, CD45/10% Mean: NOD-scid IL2Rγ null mice, dosed at 18% blasts in sentinels, bone marrow counts day 10 post-dose
# Source text: Establishment of patient-derived xenografts: NOD-scid IL2Rγ null mice were used as hosts for patient-derived xenografts. Twenty-four hours prior to cell implant, mice received 1.0 Gy irradiation using a Radsource 2000 irradiator (Radsource technologies, Suwanee, Ga.). Frozen bone marrow isolates of mononuclear cells from patients with acute lymphoblastic leukemia were obtained from […] (Alameda, Calif.). Cells were thawed in a warm water bath. After thaw, RPMI-1640 media was slowly added to the bone marrow isolate suspension. The cells were washed with PBS and centrifuged to remove DMSO in freezing media. After centrifugation, the cells were suspended in PBS. For, implantation, 3.6×10^6 cells were injected into the tail vein of female NOD-scid IL2Rγ null mice designated as donor, or passage 0 mice. Approximately 7 weeks after implant, mice were euthanized. Bone marrow and spleen were collected using sterile technique. Spleens were mechanically disrupted using a sterile syringe end and mesh filter. Connective tissues from spleens were filtered out using 40um filters. Splenocytes and bone marrow cells were treated with red blood cell buffer lysis (BD lysis buffer, BD biosciences, San Jose, Calif.) for 15 minutes at room temperature. A sample of the cells was utilized for confirmation of engraftment. The percentage of blast cells was determined by the number of CD45 FITC, CD19 PE-Cy.5 (BD Biosciences, San Jose, Calif.) CD10 APC (Biolegend, San Diego, Calif.) triple positive cells via flow cytometry (FACScalibur, BD Biosciences, San Jose, Calif.). The majority of the cells (passage 1) were placed into freezing media (90% Heat inactivated fetal bovine serum and 10% DMSO). Subsequent xenograft experiments utilized passage 1 cells. Cells were implanted in the same manner done for donor mice (passage 0 mice). Starting 14-21 days post implant, 2-3 sentinel mice were euthanized to determine the percentage blast cells in the bone marrow. […] SGN-CD19A and non-specific ADC (also called h00-1269) were administered as a single intraperitoneal injection at 1.0, 3.0, or 10.0 mg/kg dose. Cyclophosphamide at 15 or 30 mg/kg (Baxter, Deefield, Ill.), Vincristine at 0.188 or 0.375 mg/kg (Hospira, Lake Forest, Ill.), and Doxorubicin at 1.24 or 2.475 mg/kg (Pfizer, NY, NY) were combined and administered as a single dose via intravenous injection into the lateral tail vein. Dexamethasone at 7.5 or 15 mg/kg (APP Pharmaceuticals, Schaumberg, Ill.) was given daily via intraperitoneal injection for five days. At pre-determined times post treatment, mice were euthanized for collection of bone marrow and determination of blast cell percentage via flow cytometry.
# The response of human patient-derived ALL cells to single agent SGN-CD19A or CVAD was determined in mouse xenograft models. Bone marrow isolates from patients with ALL (donor 06343 and donor 90811) were used to establish xenografts in NOD-scid IL2Rgamma^null mice. After engraftment, patient-derived bone marrow cells were frozen and are referred to as passage 1 cells. Passage 1 cells were implanted into mice and assessed for presence of blast cells (CD45/CD10/CD19 positive cells). […] Mice were given either 1, 3, or 10 mg/kg of SGN-CD19A or 10 mg/kg of a non-specific ADC conjugated to MMAF (also called h00-1269). A maximum tolerated dose (MTD) of CVAD had previously been determined in the same mouse strain. Mice were given either CVAD at the MTD or at 50% of the MTD.
# The response of human patient-derived ALL cells to the combination of SGN-CD19A and CVAD was also determined in the mouse xenograft model. Patient samples were engrafted as described above.
molecule,measurement,setting,value
COc1cccc2c1C(=O)c1c(O)c3c(c(O)c1C2=O)C[C@@](O)(C(=O)CO)C[C@@H]3O[C@H]1C[C@H](N)[C@H](O)[C@H](C)O1 [Doxorubicin],Median Survival,NALM-6,44 days
same,Median Survival,RS4; 11,62 days
same,"Disease Burden in Bone Marrow, CD45/10% Mean",[1],86.7%
CC[C@]1(O)C[C@H]2CN(CCc3c([nH]c4ccccc34)[C@@](C(=O)OC)(c3cc4c(cc3OC)N(C=O)[C@H]3[C@@](O)(C(=O)OC)[C@H](OC(C)=O)[C@]5(CC)C=CCN6CC[C@]43[C@@H]65)C2)C1 [Vincristine],Median Survival,NALM-6,47 days
same,Median Survival,RS4; 11,79 days
same,"Disease Burden in Bone Marrow, CD45/10% Mean",[1],32.2%
C[C@@H]1C[C@H]2[C@@H]3CCC4=CC(=O)C=C[C@]4(C)[C@@]3(F)[C@@H](O)C[C@]2(C)[C@@]1(O)C(=O)CO [Dexamethasone],Median Survival,NALM-6,39 days
same,Median Survival,RS4; 11,80 days
same,"Disease Burden in Bone Marrow, CD45/10% Mean",[1],91.8%
O=P1(N(CCCl)CCCl)NCCCO1 (stereo not shown) [Cyclophosphamide],Median Survival,NALM-6,38 days
same,Median Survival,RS4; 11,58 days
same,"Disease Burden in Bone Marrow, CD45/10% Mean",[1],94.4%
B1,Median Survival,NALM-6,55 days
same,Median Survival,RS4; 11,85 days
same,"Disease Burden in Bone Marrow, CD45/10% Mean",[1],18.2%
same,"single agent dose response, blast cells in the bone marrow","[1]; SGN-CD19A 1, 3 or 10 mg/kg, CVAD at MTD or 50% of MTD, FIGS. 2B, 2D",decreasing amounts of blast cells in the bone marrow
